According to ChEMBL document CHEMBL4152367, “Discovery of a Potent Thiazolidine Free Fatty Acid Receptor 2 Agonist with Favorable Pharmacokinetic Properties” (J Med Chem, 2018):
Active and inactive are the calls of the source. No cut-off for these calls is given here.

How the values were obtained:
[1] = molecular target: T1, Free fatty acid receptor 2 (Homo sapiens) (UniProt O15552); assay: Agonist activity to human FFA2R expressed in HEK293T cells assessed as induction beta-arrestin-2 recruitment up to 30 uM after 10 mins by BRET assay relative control; type: functional, cell-based
T1 sequence (whole entry): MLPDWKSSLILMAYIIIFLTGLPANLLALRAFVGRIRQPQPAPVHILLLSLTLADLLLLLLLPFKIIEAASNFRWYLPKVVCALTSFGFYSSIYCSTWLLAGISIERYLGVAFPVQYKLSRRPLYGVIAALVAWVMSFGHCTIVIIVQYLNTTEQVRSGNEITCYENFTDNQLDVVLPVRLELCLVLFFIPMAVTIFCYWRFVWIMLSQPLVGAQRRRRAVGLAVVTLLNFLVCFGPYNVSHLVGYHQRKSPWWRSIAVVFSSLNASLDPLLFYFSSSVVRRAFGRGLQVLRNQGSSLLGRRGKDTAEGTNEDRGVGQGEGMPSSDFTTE

[2] = molecular target: T1, Free fatty acid receptor 2 (Homo sapiens); assay: Agonist activity at human FFA2R expressed in Flp-InT-REx 293 cells assessed as reduction of forskolin-induced cAMP production up to 30 uM after 30 mins by TR-FRET assay relative to control; type: functional, cell-based
[3] = molecular target: T2, Free fatty acid receptor 2 (Mus musculus, UniProt Q8VCK6); assay: Agonist activity at FFA2R in mouse mature adipocytes assessed as inhibition of isoproterenol-induced glycerol production
T2 sequence (Q8VCK6 whole entry): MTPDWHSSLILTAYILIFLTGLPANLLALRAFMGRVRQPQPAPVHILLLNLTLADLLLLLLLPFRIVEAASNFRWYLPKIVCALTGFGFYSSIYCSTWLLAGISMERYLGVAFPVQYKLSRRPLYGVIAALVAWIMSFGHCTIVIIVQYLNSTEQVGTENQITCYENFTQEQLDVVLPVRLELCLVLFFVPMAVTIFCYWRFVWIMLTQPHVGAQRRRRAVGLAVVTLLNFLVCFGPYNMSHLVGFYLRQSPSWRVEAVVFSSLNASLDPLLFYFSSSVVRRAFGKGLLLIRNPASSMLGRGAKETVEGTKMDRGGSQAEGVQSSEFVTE

[4] = molecular target: T1, Free fatty acid receptor 2 (Homo sapiens); assay: Agonist activity to human FFA2R expressed in HEK293T cells assessed as induction beta-arrestin-2 recruitment at 100 uM after 10 mins by BRET assay relative to control; type: functional, cell-based
[5] = Half life in Balb/c mouse at 5 mg/kg, ip by HPLC-MS/MS analysis; type: ADME, organism-based; conditions: in vivo
[6] = AUC (0 to infinity) in Balb/c mouse at 5 mg/kg, ip by HPLC-MS/MS analysis; type: ADME, organism-based; design: dose 5 mg/kg, time infinity, route intraperitoneal; conditions: in vivo

| Activity [1] | Activity [2] | Compound | also measured |
| --- | --- | --- | --- |
| inactive | inactive | O=C(O)[C@@H]1CS[C@H](c2ccccc2Cl)N1C(=O)c1ccccc1 | – |
| – | inactive | COc1ccccc1-c1ccc(C(=O)N2[C@H](C(=O)O)CS[C@@H]2C(C)(C)C)cc1 | Activity [4]: 50% |
| – | inactive | Cc1noc(C)c1-c1ccc(C(=O)N2[C@@H](c3ccccn3)SC[C@H]2C(=O)O)cc1 | – |

The remaining lines, values behind:

| Compound | Activity [1] | Activity [2] | also measured |
| --- | --- | --- | --- |
| CCC(=O)O [PROPIONIC ACID] | – | – | EC50 [3]: 251 µM |
| COc1ccccc1-c1ccc(C(=O)N2[C@@H](c3ccccc3Cl)CC[C@H]2C(=O)O)cc1 | – | – | half-life [5]: 50 min; AUC(0-inf) [6]: 417 ng·h/mL |
| COc1ccccc1-c1ccc(C(=O)N2[C@H](C(=O)O)CO[C@@H]2C(C)(C)C)cc1 | inactive | inactive | – |
